Each structure is given as a SMILES string.

The target in the assay is T1, human Farnesoid X Receptor (FXR) ligand binding domain (GST-FXR LBD) (Homo sapiens, UniProt Q96RI1).
T1 construct: purchased Invitrogen
T1 sequence (Q96RI1 193-472 isoform Q96RI1-2): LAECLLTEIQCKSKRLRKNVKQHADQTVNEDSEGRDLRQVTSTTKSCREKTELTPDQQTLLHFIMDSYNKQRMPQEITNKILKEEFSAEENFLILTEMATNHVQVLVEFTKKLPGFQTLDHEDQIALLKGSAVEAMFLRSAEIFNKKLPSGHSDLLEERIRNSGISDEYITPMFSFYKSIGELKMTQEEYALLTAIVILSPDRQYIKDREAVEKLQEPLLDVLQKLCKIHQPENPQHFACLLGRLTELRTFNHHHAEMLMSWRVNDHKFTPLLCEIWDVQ
As to the kind of experiment: Human GST-FXR LBD co-activator interaction assay (FXR HTRF assay). Type of assay: biochemical. The conditions noted are these: GST-FXR LBD interaction with biotin-labeled SRC-1 peptide, FRET, response relative to GW4064, read-out: FXR coactivator interaction assay (HTRF). (In general: In TR-FRET formats the signal depends on donor and acceptor labels being close together.)
Turning to `Cn1nc(C(=O)N(Cc2ccc(C(=O)O)c(F)c2)Cc2ccccc2F)c2c1-c1cc(Cl)ccc1OC2` [Compound 97, 4-((8-chloro-N-(2-fluorobenzyl)-1-methyl-1,4-dihydrochromeno[4,3-c]pyrazole-3-carboxamido)methyl)-2-fluorobenzoic acid], the EC50 was 17 nM.
Next, `Cc1nc(C(=O)O)ccc1CN(Cc1cccc(F)c1)C(=O)c1nn(C)c2c1COc1ccc(Cl)cc1-2` [Compound 99, 5-((8-chloro-N-(3-fluorobenzyl)-1-methyl-1,4-dihydrochromeno[4,3-c]pyrazole-3-carboxamido)methyl)-6-methylpicolinic acid]: 29 nM; `Cn1nc(C(=O)N(CCNc2cc(C(=O)O)ccc2F)Cc2ccccc2F)c2c1-c1cc(Cl)ccc1OC2` [Compound 101, 3-((2-(8-chloro-N-(2-fluorobenzyl)-1-methyl-1,4-dihydrochromeno[4,3-c]pyrazole-3-carboxamido)ethyl)amino)-4-fluorobenzoic Acid]: 5.5 nM.

These data come from patent US11021446B2 (NOVARTIS AG, priority 2013, dated 2021).
